Results on ten molecules are retold here after US20250268826A1, “IONIZABLE LIPIDOID COMPOSITIONS AND THERAPEUTIC USES THEREOF” (Flagship Pioneering Innovations VII, LLC, priority 2023, published 2025).

Where two headings read alike, the source gives them in different places.

A short description of data set [1]: Apparent pKa of the LNPs by fluorescence based TNS assay.
A short description of data set [2]: LNP size and polydispersity index (PDI) by dynamic light scattering (DLS). Particulars: for Size: LNP Lipid:DSPC:Cholesterol:DMG-PEG2k 50:10:38.5:1.5 mol %. Format: physicochemical.
Data set [3] is described as follows: LNP Zeta potential measured using a Zetasizer (Malvern). Format: physicochemical. Particulars: for Zeta potential: Table 8, LNP 50:10:38.5:1.5 mol %, hEPO mRNA, N:P 6; for Zeta potential (mV): Table 11, LNP with hEPO mRNA, Lipid:DSPC:Cholesterol:DMG-PEG2k 50:10:38.5:1.5 mol % (ALC-0315: 46.3:9.4:42.7:1.6), N:P ratio 6, HEPES/sodium chloride/sucrose buffer, stored at −80C.

Data set [4] is described as follows: Encapsulation efficiency (EE %) by fluorescence based Ribogreen assay. Format: physicochemical.
Where [5] appears, read: Table 8, LNP 50:10:38.5:1.5 mol %, hEPO mRNA, N:P 6.
Where [6] appears, read: Vaccine Study 2, LNP with spike mRNA, 50/10/38.5/1.5 mol % ionizable lipid:helper lipid:cholesterol:DMG-PEG2k, N-to-P ratio 6.
Setting [7] is: Table 11, LNP with hEPO mRNA, Lipid:DSPC:Cholesterol:DMG-PEG2k 50:10:38.5:1.5 mol % (ALC-0315: 46.3:9.4:42.7:1.6), N:P ratio 6, HEPES/sodium chloride/sucrose buffer, stored at −80C.

Take `CCCCCCCC(CCCCCCC)C(=O)OCCN(CCOC(=O)C(CCCCCCC)CCCCCCC)C(=O)CCCN(C)C` [Compound 932]: in data set [1] (Table 8, apparent pKa of LNP 50:10:38.5:1.5 mol %, hEPO mRNA, N:P 6), the pKa worked out at 6.92. Moreover, the PDI in data set [2] (setting [5]) came to 0.155. The molecule also returned a Size in data set [2] (Table 8, hEPO mRNA, N:P 6) of 123.7 nm. In data set [3], the Zeta potential is reported as −9.4 mV. In addition, the “Encapsulation Efficiency %” value in data set [4] (setting [5]) stood at 99.9%.

On to `CCCCCCCCC(CCCCCC)C(=O)OCCN(CCOC(=O)C(CCCCCC)CCCCCCCC)C(=O)CCCN(CCC)CCC.Cl` (stereo not drawn) [Compound 981], for which the “Apparent pKa” value in data set [1] (setting [6]) is 7.3. In data set [2] (setting [6]), the PDI was 0.054 and the “Size (nm)” value is 84.3 nm. In addition, in data set [3] (setting [6]), the “Zeta (mV)” value is −8.8 mV. Further, in data set [4] (setting [6]), the “EE (%)” value turned out to be 98.3%.

The molecule `CCCCCCCCC(CCCCCC)C(=O)OCCN(CCOC(=O)C(CCCCCC)CCCCCCCC)C(=O)CCCN(C)CCO.Cl` (stereo not drawn) [Compound 986] had a PDI in data set [2] (setting [5]) of 0.088. In data set [2] (Table 8, hEPO mRNA, N:P 6), this molecule yielded a Size of 112.9 nm. Further, the Zeta potential in data set [3] was −8.2 mV. The “Encapsulation Efficiency %” value in data set [4] (setting [5]) is on record as 99.9%.

Consider `CCCCCCCCC(CCCCCC)C(=O)OCCN(CCOC(=O)C(CCCCCC)CCCCCCCC)C(=O)C(C)CCN(C)C` (stereo not drawn) [Compound 987a], for which, in data set [2], the PDI was determined as 0.104 and the “Size (nm)” value was 73.2 nm. For the same molecule, the “Zeta potential (mV)” value in data set [3] is −3.5 mV. Further, the “Encapsulation Efficiency %” value in data set [4] worked out at 95.7%.

With `CCCCCCCC(CCCCCCC)C(=O)OCCN(CCOC(=O)C(CCCCCCC)CCCCCCC)C(=O)C(C)CCN(C)C.Cl` (stereo not drawn) [Compound 987b], in data set [2] (setting [7]), the PDI amounted to 0.102 and the “Size (nm)” value is listed as 74.1 nm. The “Zeta potential (mV)” value in data set [3] is listed as −2.1 mV. For the same molecule, in data set [4] (setting [7]), the “Encapsulation Efficiency %” value worked out at 93.6%.

In the case of `CCCCCCCCCC(CCCCCCCCC)C(=O)OCCN(CCOC(=O)C(CCCCCCCCC)CCCCCCCCC)C(=O)C(C)CCN(C)C.Cl` (stereo not drawn) [Compound 987c], in data set [2] (setting [7]), the PDI came to 0.066 and the “Size (nm)” value came to 72.0 nm. In data set [3], the “Zeta potential (mV)” value was −6.6 mV. For the same molecule, the “Encapsulation Efficiency %” value in data set [4] (setting [7]) came to 98.0%.

`CCCCCCCCC(CCCCCC)C(=O)OCCN(CCOC(=O)C(CCCCCC)CCCCCCCC)C(=O)C(C)CCNC.Cl` (stereo not drawn) [Compound 987d]: in data set [2] (setting [7]), the PDI was 0.092 and the “Size (nm)” value is 62.9 nm. Moreover, the “Zeta potential (mV)” value in data set [3] is reported as −1.5 mV. In addition, the “Encapsulation Efficiency %” value in data set [4] (setting [7]) is given as 99.2%.

As to `CCCCCCCCC(CCCCCC)C(=O)OCCN(CCOC(=O)C(CCCCCC)CCCCCCCC)C(=O)C(C)CCNCC.Cl` (stereo not drawn) [Compound 987e], in data set [2] (setting [7]), the PDI was determined as 0.110 and the “Size (nm)” value is reported as 70.5 nm. The “Zeta potential (mV)” value in data set [3] is on record as 0.8 mV. For the same molecule, the “Encapsulation Efficiency %” value in data set [4] (setting [7]) is 99.4%.

Consider `CCCCCCCCC(CCCCCC)C(=O)OCCN(CCOC(=O)C(CCCCCC)CCCCCCCC)C(=O)C(C)CCN(C)CC.Cl` (stereo not drawn) [Compound 987f], for which, in data set [2] (setting [7]), the PDI is given as 0.072 and the “Size (nm)” value was found to be 79.4 nm. Besides, the “Zeta potential (mV)” value in data set [3] is recorded as −2.8 mV. Further, in data set [4] (setting [7]), the “Encapsulation Efficiency %” value was 92.3%.

For the molecule `CCCCCCCCC(CCCCCC)C(=O)OCCN(CCOC(=O)C(CCCCCC)CCCCCCCC)C(=O)C(C)CCN(CC)CC.Cl` (stereo not drawn) [Compound 987g], in data set [2] (setting [7]), the PDI was 0.097 and the “Size (nm)” value is given as 70.5 nm. For the same molecule, the “Zeta potential (mV)” value in data set [3] was −3.5 mV. The “Encapsulation Efficiency %” value in data set [4] (setting [7]) is 95.4%.

For orientation: pKa means the pH at which an ionisable group is half protonated.
